Data as given in US7261889B2, “Local anesthetic methods and kits” (Novalar Pharmaceuticals, Inc., priority 2000, dated 2007).
Entries after “also recorded” stand apart in the source; their conditions may differ. Counter-ions that a name gives are not always drawn.

How the values were obtained:
[1] = test system: local anesthesia from 2% polocaine (mepivacaine hydrochloride) with levonordefrin in healthy, male human subjects; experiment: Human subjects study of local anesthesia reversal by LARA versus saline vehicle (bilateral injections); type: in vivo; details: three subjects; 0.05 mg/ml phentolamine-mesylate, 1.6 ml (0.08 mg)
Description: An injection of the physiological saline vehicle (without phentolamine-mesylate) served as the control. […] This was followed by injection of the phentolamine-mesylate containing local anesthetic reversal agent (LARA) into one side of the oral cavity, and injection of the saline vehicle (control) solution into the opposite side of the oral cavity. The time to reversal of the local anesthetic effect on both sides was then recorded to determine whether there is a difference between the two sides.
The local anesthetic used was 2% polocaine (mepivacaine hydrochloride) with levonordefrin (1:20,000=0.05 mg/ml) (levonordefrin injection, USP) (Astra USA, Inc., Westborough, Mass. 01581). Levonordefrin is a sympathomimetic amine with a pharmacological profile similar to that of epinephrine, but with a lower potency.
Three healthy, male human subjects, age 34-50, volunteered to have local anesthetic injected in the mouth bilaterally under the lip in an easily repeatable location. The exact time of each injection was recorded. The position chosen was above (apical) the prominence of the root of the upper cuspid teeth. This is a common site selected to numb the cuspids, lateral incisors and upper lip. The volume of the local anesthetic injected was 1.7+0.1 ml on each side of the mouth. […]

[2] = test system: patients; details: systemic doses; usually in association with marked hypotensive episodes; cited from earlier work
[3] = test system: patients pretreated with lignocaine admixed with epinephrine; details: 0.5-1.5 mg; '714 patent Example 1, Table 1; cited from earlier work

Row | SMILES | local anesthesia reversal compared to saline side (in words) [1] | side-effects [1] | side effects reported following administration [2] | duration of anesthesia [3]
1 | Cc1ccc(N(CC2=NCCN2)c2cccc(O)c2)cc1 [phentolamine-mesylate, phentolamine mesylate] | highly effective anesthesia reversal | no side-effects of any kind were noted; also recorded: without any side-effects whatsoever | – | –
2 | Cc1ccc(N(CC2=NCCN2)c2cccc(O)c2)cc1 [phentolamine] | – | – | Myocardial infarction, cerebrovascular spasm, and cerebrovascular occlusion have been reported | reduction in the duration of anesthesia with increasing amounts
